Read-outs that look alike come from different tables or passages of the source.
What was measured:
5-HT2A receptor [1] = target: T1, 5-HT2A receptor (Homo sapiens, UniProt P28223); assay: 5-HT2A receptor downstream β-arrestin2 recruitment in HEK-293T cells; format: cell-based; set-up: expressed in transfected cells; host or cells: HEK-293T (ATCC, CRL-11268); details: for β-arrestin2 signaling agonistic activity (% in parentheses): HEK-293T, percentage printed in parentheses beside the nM value, not defined; for signaling pathway selectivity at the 5-HT2A receptor (β-arrestin2 versus G protein): statement on Table 2
T1 sequence (P28223 whole entry): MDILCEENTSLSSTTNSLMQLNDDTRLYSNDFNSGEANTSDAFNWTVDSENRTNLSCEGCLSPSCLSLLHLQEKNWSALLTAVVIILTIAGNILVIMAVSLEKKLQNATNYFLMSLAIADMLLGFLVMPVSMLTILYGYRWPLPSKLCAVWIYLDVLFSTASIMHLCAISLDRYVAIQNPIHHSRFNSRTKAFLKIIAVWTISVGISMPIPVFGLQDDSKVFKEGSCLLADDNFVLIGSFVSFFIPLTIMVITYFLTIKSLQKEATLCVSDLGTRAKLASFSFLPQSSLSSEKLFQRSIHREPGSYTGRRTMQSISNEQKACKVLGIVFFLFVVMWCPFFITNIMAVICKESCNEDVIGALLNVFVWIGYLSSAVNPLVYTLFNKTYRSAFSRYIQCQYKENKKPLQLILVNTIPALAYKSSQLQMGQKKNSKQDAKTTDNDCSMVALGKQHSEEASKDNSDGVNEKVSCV
Procedure: (§1) On the second day, the confluent cells from a 6 cm culture dish were digested and reseeded into a 96-well plate at a volume of 100 μL of culture medium per well. On the third day, the drugs were added for testing. The 96-well plate was taken out from the cell incubator to decant the culture medium. 40 μL of the substrate coelenterazine 400a (final concentration 5 μM) was added to each well, and then 20 μL of different drugs were added sequentially from left to right, ensuring that the final concentration of the drug decreased gradually from bottom to top, with two replicates per treatment. Finally, the prepared samples were loaded on a plate reader for signal quantification. The readout values reflected the recruitment of β-arrestin2 to the membrane or the dissociation of G protein trimer. The former indicated the degree of activation of the downstream β-arrestin2 signaling pathway mediated by the 5-HT2A receptor, and the latter indicated the degree of activation of the downstream G protein signaling pathway mediated by the 5-HT2A receptor.

5-HT2A receptor [2] = target: T1, 5-HT2A receptor; assay: radioligand competitive binding assay, affinity for the 5-HT2A receptor; details: [3H]-LSD competition, 293T membranes transiently expressing 5-HT2A receptor
C57BL/6J mice = assay: head-twitch response in mice (hallucinogenic effects); format: in vivo; details: intraperitoneal injection, first 30 minutes, all doses tested
From the text: Method: The head-twitch response in mice was detected via oscillatory signals to characterize hallucinogenic effects. Mice (strain C57BL/6J, purchased from Shanghai Lingchang Biotech Co., Ltd.) were anesthetized with 2% isoflurane. A small portion of the scalp was removed from the center of the dorsal cranium. A custom-made small neodymium magnet (4 mm×4 mm×2 mm) was attached to the center of the dorsal cranium using dental resin. The magnet N-S poles were kept parallel to the dorsoventral aspect of the implant. The mice were allowed to recover for 1 week before testing. To record precise head movements, the mice were placed in a glass beaker with a diameter of 12 cm, surrounded by 150 turns of #30 enameled copper wire. The output signal from the coil was recorded using a PowerLab/4SP instrument installed with LabChart V8.1.16 software. Coil voltage was amplified, low-pass filtered at 10 kHz to remove radio frequency interference, and sampled at 40 kHz. For the detection of head-twitch response in mice, LabChart data were processed with a digital band-pass filter at 40 to 200 Hz. The head-twitch response in mice was identified by searching for sinusoidal wavelets that met the following criteria: 1) containing more than two bipolar peaks; 2) amplitude exceeding background noise level; 3) duration less than 120 milliseconds. 1 hour prior to the test, the mice were transferred to the test room for acclimatization. Subsequently, the mice were placed in the beaker for 30 minutes, and baseline head-twitch response values were recorded. Immediately after baseline recording, the mice were injected intraperitoneally with the test compound, and head-twitch response values were recorded for 1 to 2 hours post-dose, depending on the compound used. Statistical values were taken from the first 30 minutes.

[3] = tested on: C57BL/6 mice, corticosterone in drinking water; assay: tail suspension test after 21 days of corticosterone exposure; format: in vivo; details: corticosterone model
Procedure: Antidepressant efficacy test method: Male C57BL/6 mice (8 weeks old, purchased from Shanghai Lingchang Biotech Co., Ltd.) were administered a solution of corticosterone in their drinking water at a concentration of 25 μg/mL using drinking water bottles for 21 days. Mice were maintained on a 12-hour light cycle. Corticosterone-containing drinking water was refreshed every other day for the first two weeks, and gradually replaced with corticosterone-free drinking water every two days for the last week. […] TST procedure: mice in the control group and the administration group were suspended by their tails with tape for 6 minutes, and their behavior was recorded by a video camera. The immobility time during the last 4 minutes was manually timed and assessed by an observer who was unaware of the treatment conditions.

in vivo = details: male, C57, mouse, plasma, ip, 5 mg/kg
Procedure: (§3) The concentration of the compound in mouse plasma was determined using LC-MS/MS, and the relevant pharmacokinetic parameters were calculated to investigate the pharmacokinetic characteristics of the compound in mice.
(§4) Experimental design: 60 male C57 mice (purchased from Suzhou JOINN Laboratory Animal Co., Ltd.) were randomly divided into groups based on weight, with 3 mice per group. The mice were fasted with water ad libitum for 12 to 14 hours one day before test-article administration and fed 4 hours after the administration. The route of administration was intraperitoneal (IP), with a dosing concentration of 1 mg/mL, and a solvent formulation of 10% DMSO+90% saline.
(§5) Sample collection: 0.1 mL of blood was collected from the orbit under isoflurane anesthesia before and after test-article administration, transferred to EDTA K2 tubes, and placed on an ice bath. The samples were centrifuged at 5000 rpm for 10 minutes at 4° C., and the plasma was collected. […] Prior to analysis, all plasma samples were stored at −80° C.
(§6) Data processing: Drug concentrations in plasma and brain tissues were measured using LC-MS (API4000QTRAP triple quadrupole tandem mass spectrometer, equipped with an electrospray ionization source (ESI)). The data collection and control system software utilized was Analyst 1.5.1 (Applied Biosystems). The sample peak integration in the spectrum was conducted automatically; the ratio of the sample peak area to the internal standard peak area was used as an indicator to perform regression with the concentration of the sample. Regression method: Linear regression with a weighting factor of 1/X^2. Pharmacokinetic parameters were analyzed using a non-compartmental model in WinNonlin Professional v6.3 (Pharsight, USA). Cmax is the measured maximum plasma concentration, the area under the plasma concentration-time curve (AUC(0→t)) was calculated by the trapezoidal method, and Tmax is the time to reach peak plasma concentration after administration. Experimental data are presented as “Mean±Standard Deviation” (Mean±SD, n≥3) or “Mean” (n=2).

5-HT2A receptor [4] = target: T1, 5-HT2A receptor; assay: 5-HT2A receptor downstream G protein (Gq) signaling, G protein trimer dissociation in HEK-293T cells; format: cell-based; set-up: expressed in transfected cells; host or cells: HEK-293T (ATCC, CRL-11268); details: percentage printed in parentheses beside the nM value, not defined
Procedure: as §1

dopamine D2 receptor = target: T2, dopamine D2 receptor (Homo sapiens, UniProt P14416); assay: radioligand competitive binding assay, affinity for the dopamine D2 receptor
T2 construct: expressed in transfected cells; host or cells: HEK-293T (ATCC, CRL-11268)
T2 sequence (P14416 whole entry, species assumed): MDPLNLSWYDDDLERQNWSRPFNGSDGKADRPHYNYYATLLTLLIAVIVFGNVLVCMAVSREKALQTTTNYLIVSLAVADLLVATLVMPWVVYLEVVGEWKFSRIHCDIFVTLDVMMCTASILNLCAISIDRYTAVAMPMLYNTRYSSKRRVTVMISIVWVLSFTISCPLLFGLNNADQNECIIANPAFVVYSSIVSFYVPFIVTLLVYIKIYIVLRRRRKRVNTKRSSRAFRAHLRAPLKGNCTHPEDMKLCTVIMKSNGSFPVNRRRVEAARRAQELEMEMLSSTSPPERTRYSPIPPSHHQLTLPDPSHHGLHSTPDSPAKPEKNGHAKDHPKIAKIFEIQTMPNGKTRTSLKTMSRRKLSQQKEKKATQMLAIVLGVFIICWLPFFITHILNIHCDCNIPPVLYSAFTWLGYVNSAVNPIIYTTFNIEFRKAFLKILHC
Procedure: Method: The affinity of the compounds of the present disclosure for the dopamine D2 receptor was determined using a radioligand competitive binding assay as follows. In the first step, a cell membrane component containing dopamine D2 receptor was prepared. […] 48 hours post-transfection, the 10 cm culture dish was taken out from the cell incubator and the cultured cells had expressed the dopamine D2 receptor. The culture medium was aspirated using a vacuum pump, and 3 mL of lysis buffer was added to each culture dish. The cells were then placed in a cold room at 4° C. for 10 minutes. After the cells were detached, they were transferred to a 15 mL centrifuge tube and centrifuged at 1500 rpm for 5 minutes at 4° C., and the supernatant was discarded. The cell pellet was transferred to a tissue homogenizer, and 3 mL of lysis buffer was added. Sufficient grinding was applied to break the cells. The cell suspension was then equally aliquoted into several Eppendorf tubes and centrifuged at 12000 rpm for 5 minutes at 4° C., and the supernatant was discarded. The resulting precipitate was the cell membrane component containing the dopamine D2 receptor. […] The machine readout value reflected the amount of [3H]-Methylspiperone bound on the membrane, and after further data processing, the affinity Ki values of different compounds for the dopamine D2 receptor were obtained.

[5] = tested on: C57BL/6J wild-type mice, acute restraint stress; assay: tail suspension test (TST) after acute restraint stress; format: in vivo; details: 5 h acute restraint stress, intraperitoneal injection, test after 30 minutes
Procedure: (§2) Method: Acute restraint stress (ARS) is frequently used to induce a depressive state in mice. The forced swim test (FST) and tail suspension test (TST) are currently the most commonly used models for inferring “depression-like” behaviors. C57BL/6J wild-type mice (over 8 weeks old, purchased from Shanghai Lingchang Biotech Co., Ltd.) were restrained individually in a rodent restraint device for 5 hours. The mice were restricted from all body movements, but only minimal pain was introduced. During the ARS experiment, the mice were deprived of both food and water. After 5 hours of restraint, a separate group of mice was released and immediately injected intraperitoneally with the test compound. After 30 minutes of recovery, the behavioral changes of the mice were assessed through the Forced Swim Test (FST) or Tail Suspension Test (TST). […] All mice were forced to swim for 6 minutes, and their behavior was recorded using a video camera. The immobility time during the last 4 minutes of the test was recorded. […] In the TST, mice in the control group and those subjected to restraint stress were suspended by their tails with tape for 6 minutes, and their behavior was recorded using a video camera. The immobility time during the last 4 minutes was manually timed and assessed by an observer who was unaware of the treatment conditions.

[6] = tested on: C57BL/6J wild-type mice, acute restraint stress; assay: forced swim test (FST) after acute restraint stress; format: in vivo; details: 5 h acute restraint stress, intraperitoneal injection, test after 30 minutes
Procedure: as §2

[7] = 10 mg/kg IP, male C57 mice
Procedure: as §3, §4, §5, §6

[8] = depressive episodes associated with bipolar I or II disorder; Calabrese et al. 2021; cited from earlier work
[9] = Ki, affinity for the 5-HT2A receptor
[10] = read-out: Ki, affinity for the 5-HT2A receptor

For `COc1ccccc1CCN1CCC2C(C1)c1cccc3c1N2CCCN3C` (single isomer, unassigned) [I-13], the “β-arrestin2 signaling agonistic activity (% in parentheses)” value (5-HT2A receptor [1]) was “(51.4%)” and the “signaling pathway selectivity at the 5-HT2A receptor (β-arrestin2 versus G protein)” value (“signaling pathway selectivity” below) (5-HT2A receptor [1]) was “selectively activate the recruitment of β-arrestin2 mediated by the 5-HT2A receptor, without activating the G protein signaling pathway”.

Compound `COc1ccccc1CCCN1CCC2C(C1)c1cccc3c1N2CCCN3C` (single isomer, unassigned) [I-14] has a Ki (5-HT2A receptor [2]; [9]) of 28 nM.

With `COc1ccccc1CCCN1CCC2C(C1)c1cccc3c1N2CCCN3C` (single isomer, unassigned) [I-15] the Ki (5-HT2A receptor [2]; [9]) was 7 nM, the “β-arrestin2 signaling agonistic activity (% in parentheses)” value (5-HT2A receptor [1]) was “(24.3%)” and the “signaling pathway selectivity” value (5-HT2A receptor [1]) was “selectively activate the recruitment of β-arrestin2 mediated by the 5-HT2A receptor, without activating the G protein signaling pathway”.

With `COc1ccccc1CCCN1CCC2C(C1)c1cccc3c1N2CCC3` (single isomer, unassigned) [I-18] the Ki (5-HT2A receptor [2]; [9]) was 57 nM.

For `COc1ccccc1CCCN1CCC2C(C1)c1cccc3c1N2CCC3` (single isomer, unassigned) [I-19], the “β-arrestin2 signaling agonistic activity (% in parentheses)” value (5-HT2A receptor [1]) was “(59.4%)” and the “signaling pathway selectivity” value (5-HT2A receptor [1]) was “selectively activate the recruitment of β-arrestin2 mediated by the 5-HT2A receptor, without activating the G protein signaling pathway”.

In the case of `COc1ccccc1CCCN1CCC2C(C1)c1cccc3c1N2CCO3` (single isomer, unassigned) [I-23], the “hallucinogenic effects (head-twitch response)” value (from here on “hallucinogenic effects”) (C57BL/6J mice) is reported as “did not induce hallucinogenic effects”, the “antidepressant effect in the mouse tail suspension test” value ([3]; 10 mg/kg single injection, after 7 days) is reported as “remained significant” and the “antidepressant effect in the mouse tail suspension test” value ([3]; 10 mg/kg single injection, after 14 days) is reported as “remained significant”. For the same compound, the “antidepressant effect in the mouse tail suspension test” value ([3]; one day after a single administration) was “significant antidepressant effect”, the AUC0-inf (in vivo) was 540 ng·h/mL and the “β-arrestin2 signaling agonistic activity (% in parentheses)” value (5-HT2A receptor [1]) was “(51.6%)”.

With `CN1CCN2c3c(cccc31)[C@@H]1CN(Cc3ccccc3O)CC[C@@H]12` [I-2, 2-(((6bR,10aS)-3-methyl-2,3,6b,9,10,10a-hexahydro-1H-pyrido[3′,4′:4,5]pyrrolo[1,2,3-de]quinoxalin-8 (7H)-yl)methyl)phenol] the Ki (5-HT2A receptor [2]; [10]) was 525 nM, the “Gq signaling agonistic activity (% in parentheses)” value (5-HT2A receptor [4]) was “(65.3%)” and the “β-arrestin2 signaling agonistic activity (% in parentheses)” value (5-HT2A receptor [1]) was “(68.4%)”.

For `COc1ccccc1CCN1CC[C@H]2[C@@H](C1)c1cccc3c1N2CCN3C` [I-3], the “affinity for the dopamine receptor, in words” value (dopamine D2 receptor) was “weak affinity”, the “antidepressant effect in the TST (immobility time)” value [5] was “significant antidepressant effect” and the “antidepressant effect in the FST (immobility time)” value [6] was “significant antidepressant effect”. The “hallucinogenic effects” value (C57BL/6J mice) was “did not induce hallucinogenic effects”, the Ki (5-HT2A receptor [2]; [10]) was 17 nM and the “Gq signaling agonistic activity (% in parentheses)” value (5-HT2A receptor [4]) was “(20.2%)”. For the same compound, the “β-arrestin2 signaling agonistic activity (% in parentheses)” value (5-HT2A receptor [1]) was “(39.0%)”.

For `COc1cccc(CCN2CC[C@H]3[C@@H](C2)c2cccc4c2N3CCN4C)c1` [I-4], the Ki (5-HT2A receptor [2]; [10]) was 88 nM, the “Gq signaling agonistic activity (% in parentheses)” value (5-HT2A receptor [4]) was “(13.7%)” and the “β-arrestin2 signaling agonistic activity (% in parentheses)” value (5-HT2A receptor [1]) was “(44.2%)”.

With `COc1ccc(CCN2CC[C@H]3[C@@H](C2)c2cccc4c2N3CCN4C)cc1` [I-5] the Ki (5-HT2A receptor [2]; [10]) was 126 nM and the “β-arrestin2 signaling agonistic activity (% in parentheses)” value (5-HT2A receptor [1]) was “(3.2%)”.

For `COc1cccc(CCN2CC[C@H]3[C@@H](C2)c2cccc4c2N3CCN4C)c1OC` [I-6], the Ki (5-HT2A receptor [2]; [10]) was 5240 nM.

In the case of `CN1CCN2c3c(cccc31)[C@@H]1CN(CCc3ccccc3O)CC[C@@H]12` [I-9, 2-(2-((6bR,10aS)-3-methyl-2,3,6b,9,10,10a-hexahydro-1H-pyrido[3′,4′:4,5]pyrrolo[1,2,3-de]quinoxalin-8 (7H)-yl)ethyl)phenol], the “β-arrestin2 signaling agonistic activity (% in parentheses)” value (5-HT2A receptor [1]) is reported as “(14.4%)”.

With `COc1ccccc1CCCN1CC[C@H]2[C@@H](C1)c1cccc3c1N2CCN3C` [I-10] the “affinity for the dopamine receptor, in words” value (dopamine D2 receptor) was “weak affinity”, the “antidepressant effect in the TST (immobility time)” value [5] was “significant antidepressant effect” and the “antidepressant effect in the FST (immobility time)” value [6] was “significant antidepressant effect”. The “hallucinogenic effects” value (C57BL/6J mice) was “did not induce hallucinogenic effects”, the AUC0-inf ([7]; brain) was 1346 h · ng · mL^−1 or ng · g^−1 and the AUC0-t ([7]; brain) was 1335 h · ng · mL^−1 or ng · g^−1. The AUMC0-inf ([7]; brain) was 2054 h · h · ng · mL^−1 or ng · g^−, the AUMC0-t ([7]; brain) was 1979 h · h · ng · mL^−1 or ng · g^− and the Cmax ([7]; brain) was 566 ng/g. It also gave an MRT ([7]; brain) of 91.8 min, a T1/2 ([7]; brain) of 48.1 min and a tmax ([7]; brain) of 30 min. For the same compound, the AUC0-inf ([7]; plasma) was 582 ng·h/mL, the AUC0-t ([7]; plasma) was 576 ng·h/mL and the Cmax ([7]; plasma) was 225 ng/mL. The MRT ([7]; plasma) was 127 min, the T1/2 ([7]; plasma) was 63.6 min and the tmax ([7]; plasma) was 4.98 min. For the same compound, the Ki (5-HT2A receptor [2]; [10]) was 13 nM and the “β-arrestin2 signaling agonistic activity (% in parentheses)” value (5-HT2A receptor [1]) was “(12.7%)”.

For `CN1CCN2c3c(cccc31)[C@@H]1CN(CCCc3ccccc3O)CC[C@@H]12` [I-11, 2-(3-((6bR,10aS)-3-methyl-2,3,6b,9,10,10a-hexahydro-1H-pyrido[3′,4′:4,5]pyrrolo[1,2,3-de]quinoxalin-8 (7H)-yl)propyl)phenol], the “Gq signaling agonistic activity (% in parentheses)” value (5-HT2A receptor [4]) was “(9.7%)” and the “β-arrestin2 signaling agonistic activity (% in parentheses)” value (5-HT2A receptor [1]) was “(36.8%)”.

For `COc1ccccc1CCCN1CC[C@@H]2[C@H](C1)c1cccc3c1N2CCCS3` [I-27], the “β-arrestin2 signaling agonistic activity (% in parentheses)” value (5-HT2A receptor [1]) was “(35.7%)” and the “signaling pathway selectivity” value (5-HT2A receptor [1]) was “selectively activate the recruitment of β-arrestin2 mediated by the 5-HT2A receptor, without activating the G protein signaling pathway”.

For `CN1CCN2c3c(cccc31)[C@@H]1CN(CCCC(=O)c3ccc(F)cc3)CC[C@@H]12` [lumateperone], the patient response rate [8] is listed as 51.1%.

From patent US20260224590A1 (priority 2023, published 2026)
